Measured values as given in a melting point compilation (Tetko et al.; mined from patent text by program, amines drawn as free bases though some values may be those of a salt).

melting point [°C] | Compound
124 to 127 | CCOC(=O)c1ccc2c(CC[N+](=O)[O-])c[nH]c2c1
142 to 143 | COC[C@@H]1CN(c2nsc3cc(O)ccc23)C(=O)O1
170 to 173 | O=C(NC1CCCCC1)Oc1ccc(N=C=S)cc1
191 to 193 | O=C1Cc2ccccc2C12COc1cc3c(cc12)OCC(Cc1ccccc1C(F)F)O3 (stereo unspecified)
165 to 166 | CCOc1ccc2[nH]cc(CC(C)(N)C(=O)OC)c2c1 (racemic)
163 to 165 | COC(Cc1ccc(OCCc2nc(C(C)(C)C)oc2C)c2ccsc12)C(=O)O (stereo unspecified)
295 to 300 | OCc1cnc2cc(F)ccc2c1O
106 to 107 | CCOC(=O)/C=C/c1ccc(OCCCC#N)cc1Oc1ncc(C(F)(F)F)cc1Cl
93 to 95 | CCOC(=O)c1c(C)nn(-c2cccc(N)c2)c1C
146 to 149 | NS(=O)(=O)c1cc(C=O)cs1
230 to 232 | NC(=O)c1ncn(Cc2ccc(Cl)c(C(F)(F)F)c2)c1N
238 to 244 | O=[N+]([O-])c1c(O)c(O)cc2cc(N=Nc3ccccc3)ccc12
130 to 131 | COC(OC)c1cccc(-c2ccc(C(=O)O)cc2)c1
119 to 120 | Cc1cccc(N2CCN(CCCCNC(=O)c3cc4ccccc4o3)CC2)c1
70 to 71 | O=C(C1=NCCCCCN1)c1ccccc1
112 to 113 | COC(=O)CCc1nc(-c2cc3ccccc3o2)no1
139 to 141 | CCOCc1nc2c(N(Cc3ccccc3)Cc3ccccc3)nc(C)cc2n1NC(=O)OC(C)(C)C
149 to 151 | COc1nc2ccccn2c(=O)c1-c1ccc(Cl)cc1
148 | CCNCCCOc1ccc(-c2ccc(C(=O)OCC)cc2)cc1-c1ccc2c(c1)C(C)(C)CCC2(C)C
115 to 120 | CC12C=CC(C)(O1)C(Br)C(=O)C2Br (stereo unspecified)
198 to 200 | Cc1[nH]c(=O)n(C2CCCCC2)c1-c1ccc(OCCC(C)C)cc1
207 to 208 | CNc1cccc(-c2nc(=O)c3ccccc3s2)n1
115 to 119 | CCOC(=O)c1nc(CCS(=O)(=O)c2ccc(Cl)cc2)no1
147 to 148 | COc1ccc(COc2cccc(C(=O)Nc3ccc(C#N)cc3)c2)cc1
188 | FC(F)(F)c1cc(-c2ccc(Cl)c(Cl)c2)nc2c(-c3ccccn3)cnn12

melting point [°C] | Compound
89 to 92 | CC(C)CCC(O)C(CC1CCCCC1)NC(=O)C(Cc1c[nH]cn1)N(C)C(=O)C(Cc1ccccc1)NC(=O)N(C)CCN(C)C(=O)N1CCOCC1 (stereo unspecified)
169 to 170 | CC[C@@H]1O[C@](C#Cc2ccoc2)(C(F)(F)F)c2cc(Cl)ccc2NC1=O (relative stereo)
222 to 225 | CCOc1c(C(=O)O)cnc2nn(C)cc12
183 to 184 | CC(C)(C)OC(=O)N1CCN(c2cccc3ccc(Nc4ncccc4N)cc23)CC1
152 to 154 | COCCOC1C(O)C(CO)OC1n1cnc2c(N)nc(N)nc21 (stereo unspecified)
245 to 250 | O=c1cc(Sc2ccccc2)c(-c2nc[nH]n2)nn1-c1ccccc1
194 | CCOC(=O)C1=C(C)Nc2nc(N3CCOCC3)nc(N3CCOCC3)c2C1c1cccc(OC)c1OC (stereo unspecified)
198 to 200 | N#Cc1ccc(N(Cc2ccc(OS(N)(=O)=O)c(F)c2)n2cnnc2)cc1-c1ccccc1
60 to 61 | COC(=O)c1cc(Cl)cc2c1OCCN2
> 280 | CCn1c(=O)c2[nH]c(/C=C/c3cccc(Cl)c3)nc2n(CC)c1=O
221 to 223 | CN(C)c1cnc([N+](=O)[O-])cn1
102 | CCC(CC)/C(N)=C(\C#N)C(=O)Cl
120 | COC(=O)c1ccc(OC)c(NC(=NCl)c2ccc(Cl)cc2)c1
142 to 144 | CC1(C(O)(C=Cc2ccc(Cl)cc2Cl)Cn2ccnc2)COCOC1 (stereo unspecified)
295 | O=c1[nH]c(=S)[nH]c2ccnn12
208 | O=C1CCC(O)C(C(c2ccccc2)c2ccccc2)N1 (stereo unspecified)
204 to 205 | CCOC(=O)C1=C(COCCNC2=NC(=O)CS2)NC(C)=C(C(=O)OC)C1c1cccc(Cl)c1Cl (stereo unspecified)
107 to 108 | CCOC(=O)C(C#N)=C(NCc1ccccc1)NCC1CN(Cc2ccc(F)cc2)CCO1 (stereo unspecified)
84 to 86 | CNC(=O)C(=NOC)c1ccccc1COc1ncc(Sc2ccccc2)cc1Cl
224 to 225 | COc1cc(Nc2c(C#N)cnc3cc(-c4ccc(CN(C)C)cc4)sc23)c(Cl)cc1Cl
227 to 229 | CC(=O)Nc1cc(O)ccc1/C=C/c1ccc(O)cc1
172 to 174 | NC(=O)N1CCC(c2nn(-c3ccc(C(F)(F)F)cc3)c3ccc(F)cc23)CC1
54.5 to 56 | CCCCCCCCCCCc1nc2c(O)c(Cl)c(C)c(Cl)c2cc1CCCCCCCCCC
220 | Cc1nnc2c(Cl)nc([N+](=O)[O-])c(N)n12
59 | N#Cc1cc(N)ccc1OC1CCCCC1

melting point [°C] | Compound
108 to 110 | N#CC1(c2ccccc2)CCC2(CC1)OCCO2
68 to 76 | COc1ccc(S(=O)(=O)NC=NCCSCc2csc(NC=NN)n2)cc1
190 to 194 | O=C(Nc1ccccc1)c1cc(Oc2ccc(C(F)(F)F)cc2Cl)ccc1[N+](=O)[O-]
227 to 228 | Cc1ccc(-n2c(=O)cc(C(F)(F)F)[nH]c2=S)cc1OC(C)C
239 to 240 | CCc1ccc(Nc2nc3cc(NC(=O)c4ccccc4)ccc3o2)cc1
229 to 233 | CC1CCN(C=Nc2ccc3c(c2)C(=O)c2ccc(N=CN4CCC(C)CC4)cc2C3=O)CC1
195 to 212 | Fc1cc2c(cc1F)CC(n1c(-c3nnn[nH]3)c[nH]c1=S)CC2 (stereo unspecified)
172 to 173 | CC(C)CCN1C(=O)C(NC(=O)Oc2cccc(N(C)C)c2)C(=O)N(CC23CC4CC(CC(C4)C2)C3)c2ccccc21 (stereo unspecified)
277 | Nc1cc(-c2noc(-c3cnn4c(C(F)(F)F)cc(-c5ccc(C(F)(F)F)cc5)nc34)n2)ccn1
197 to 199 | CCNC(=O)c1ccc(-c2ccc3nnn(Cc4cc5cccnc5cc4F)c3n2)cc1Cl
133 to 135 | Cc1cccc2nc3c(nc12)C=CCC3=O
151 to 152 | O=C(O)CCc1conc1-c1ccc(F)c(Br)c1
210 to 211 | OCC1OC(n2cnc3c(NC4CCCCC4O)ncnc32)C(O)C1O (stereo unspecified)
130 to 132 | Cc1onc(C(C)(O)c2ccccc2)c1NC(=O)CCl (stereo unspecified)
164 | CCC(C)C(NC(=O)C(C)CS)C(=O)O (stereo unspecified)
118 to 120 | CCCCNC(=O)Cc1ccc(O)c(C2CCCCC2)c1
126 to 127 | O=CC(=Cc1cccc(OCc2ccccc2)c1)C(C=O)=Cc1cccc(OCc2ccccc2)c1
150 to 151 | CCC(N)(CO)CS(=O)(=O)c1ccccc1C(=O)c1ccccc1 (stereo unspecified)
143 to 145 | Nc1nc(OCc2cccc(Br)c2)ncc1F
206 to 207 | NS(=O)(=O)c1ccc(-n2nc(CCCNC(=O)Nc3ccc(OC(F)(F)F)cc3)cc2-c2ccccc2)cc1
230 to 232 | COc1cc(Cc2ccc3nc(N)nc(N)c3c2)cc(OC)c1
80 to 82 | N#CCC(C#N)=NNc1c(Cl)cc(C(F)(F)F)cc1Cl
100 to 112 | CC(C)(C)[S@](=O)N1CCC[C@@H]1c1ccc(Br)cc1
178 | CC(=O)Nc1cccc(Oc2ccn3nc(-c4ccccc4)c(-c4ccc(=O)n(C(C)C)n4)c3c2)c1
246 to 247 | N#Cc1c(Cl)n(C2OC(CF)C(O)C2O)c2cc(Cl)c(Cl)cc12 (stereo unspecified)

melting point [°C] | Compound
68.4 | COc1ccccc1Nc1ccc2c(c1)OCc1cc(N)ccc1C2=O
84 | Cc1ccc(C(Br)C(Br)C(=O)c2ccccc2)cc1 (stereo unspecified)
206 to 209 | O=C(O)Cc1c(C(=O)c2ccc(Cl)c(Cl)c2)[nH]c2cc(Cl)ccc12
248 to 249 | COc1cc(OC)c2c(=O)[nH]c(-c3ccc(OC4CCN(C(=O)N(C)C)CC4)cc3)nc2c1
231 to 232 | N#Cc1cc2c(c(C(=O)O)c1-c1ccccc1)NCCC2C(=O)O (stereo unspecified)
177 to 178 | O=C(O)CCCC(=O)c1cn(-c2cccnc2)c2ccccc12
115 | CC(C)(C)OC(=O)C1CSC(C2CC3CCC2C3)N1C(=O)CNC(=O)Nc1cccc(CC(=O)O)c1 (mixture of isomers)
> 250 | CNCC1Cc2cc(-c3ccccc3)cc(-c3ccc(C)cc3)c2O1 (stereo unspecified)
88 to 89 | CCOC(=O)Nc1cc(N)ccc1F
222 to 224 | COc1ccccc1-c1coc2cc(O)ccc2c1=O
186 to 188 | CCn1c(=O)c(NC(=O)Nc2ccc(F)cc2F)c(-c2ccccc2Cl)c2cc(C)cc(C)c21
297 | Clc1cc2nc(-c3ccncc3)[nH]c2cc1Cl
174 to 175 | CCCCOc1nccc2c1C(c1ccccc1C(F)(F)F)C(C(=O)OCC)=C(C)N2 (stereo unspecified)
132 to 134 | O=c1c2ccccc2nnn1OS(=O)(=O)c1ccccc1
165 to 167 | CCN(CC)C(=O)c1cnn(C)c1C(=O)Nc1ccn2nc(N3CCOCC3)nc2c1
180 to 182 | Cc1cccc(C(=O)n2c3c(c4ccccc42)CC(C(=O)O)CC3)c1 (stereo unspecified)
160 to 163 | COc1cc2c(cc1OC)C1=NNC(c3ccc(Cl)cc3)C1CCC2 (stereo unspecified)
85 to 87 | O=C(C=Cc1ccc2c(c1)OCO2)C1CC1
212 to 214 | O=C(Nc1ccc2cc(CN3CCCC3)ccc2c1)c1ccc(-c2ccccc2)nc1
154 | COc1ccc(S(=O)(=O)N2Cc3[nH]c4ccccc4c3CC2C(=O)O)cc1 (stereo unspecified)
164 to 166 | Cc1ccc(NCCCNc2ncc(Cc3ccc(C)nc3)c(=O)[nH]2)nc1
65.6 to 66.4 | OC1C=CC2COC1O2 (stereo unspecified)
117 to 119 | COc1cc(CN2CCN(C(=O)C3=Cc4ccc(OC(=O)c5ccccc5)cc4CC3)CC2)cc(OC)c1OC
226 | Brc1ccc2oc3ccc(Br)cc3c2c1
80 | COC(=O)CCCC(N)=O

Compound | melting point [°C]
COc1cc(Cl)c(C(=O)c2c(C)ccc(OC)c2OC(=O)Cc2ccccc2)c(Cl)c1 | 106
